Source: patent publication US8124610B2, “Sodium channel inhibitors” (Icagen Inc., priority 2007, dated 2012)

Tests used:
[1] = molecular target: T1, hSCN9A (Homo sapiens, UniProt Q15858); assay: Whole-cell patch-clamp electrophysiology (conventional or PatchXpress), HEK cells expressing hSCN9A, estimated IC-50; format: cell-based; settings: estimated IC-50, HEK cells expressing hSCN9A; class symbols or bounds; read-out: SCN9A EIC-50
T1 construct: expressed in transfected cells
Summary of the method: (§1)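 Stably transfected HEK cells recorded by whole-cell voltage clamp (manual or PatchXpress) at 22–24 °C in pH 7.4 HEPES-buffered extracellular solution. Cells held at the empirically determined inactivation V1/2 after an 8 s prepulse, then stepped to 0 mV for 20 ms; % inhibition from current amplitude before vs after compound.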

[2] = molecular target: T2, hSCN3A (Homo sapiens, UniProt Q9NY46); assay: Whole-cell patch-clamp electrophysiology (conventional or PatchXpress), HEK cells expressing hSCN3A, estimated IC-50; format: cell-based; settings: estimated IC-50, HEK cells expressing hSCN3A; class symbols or bounds; read-out: SCN3A EIC-50
T2 construct: expressed in transfected cells
T2 sequence (Q9NY46 whole entry): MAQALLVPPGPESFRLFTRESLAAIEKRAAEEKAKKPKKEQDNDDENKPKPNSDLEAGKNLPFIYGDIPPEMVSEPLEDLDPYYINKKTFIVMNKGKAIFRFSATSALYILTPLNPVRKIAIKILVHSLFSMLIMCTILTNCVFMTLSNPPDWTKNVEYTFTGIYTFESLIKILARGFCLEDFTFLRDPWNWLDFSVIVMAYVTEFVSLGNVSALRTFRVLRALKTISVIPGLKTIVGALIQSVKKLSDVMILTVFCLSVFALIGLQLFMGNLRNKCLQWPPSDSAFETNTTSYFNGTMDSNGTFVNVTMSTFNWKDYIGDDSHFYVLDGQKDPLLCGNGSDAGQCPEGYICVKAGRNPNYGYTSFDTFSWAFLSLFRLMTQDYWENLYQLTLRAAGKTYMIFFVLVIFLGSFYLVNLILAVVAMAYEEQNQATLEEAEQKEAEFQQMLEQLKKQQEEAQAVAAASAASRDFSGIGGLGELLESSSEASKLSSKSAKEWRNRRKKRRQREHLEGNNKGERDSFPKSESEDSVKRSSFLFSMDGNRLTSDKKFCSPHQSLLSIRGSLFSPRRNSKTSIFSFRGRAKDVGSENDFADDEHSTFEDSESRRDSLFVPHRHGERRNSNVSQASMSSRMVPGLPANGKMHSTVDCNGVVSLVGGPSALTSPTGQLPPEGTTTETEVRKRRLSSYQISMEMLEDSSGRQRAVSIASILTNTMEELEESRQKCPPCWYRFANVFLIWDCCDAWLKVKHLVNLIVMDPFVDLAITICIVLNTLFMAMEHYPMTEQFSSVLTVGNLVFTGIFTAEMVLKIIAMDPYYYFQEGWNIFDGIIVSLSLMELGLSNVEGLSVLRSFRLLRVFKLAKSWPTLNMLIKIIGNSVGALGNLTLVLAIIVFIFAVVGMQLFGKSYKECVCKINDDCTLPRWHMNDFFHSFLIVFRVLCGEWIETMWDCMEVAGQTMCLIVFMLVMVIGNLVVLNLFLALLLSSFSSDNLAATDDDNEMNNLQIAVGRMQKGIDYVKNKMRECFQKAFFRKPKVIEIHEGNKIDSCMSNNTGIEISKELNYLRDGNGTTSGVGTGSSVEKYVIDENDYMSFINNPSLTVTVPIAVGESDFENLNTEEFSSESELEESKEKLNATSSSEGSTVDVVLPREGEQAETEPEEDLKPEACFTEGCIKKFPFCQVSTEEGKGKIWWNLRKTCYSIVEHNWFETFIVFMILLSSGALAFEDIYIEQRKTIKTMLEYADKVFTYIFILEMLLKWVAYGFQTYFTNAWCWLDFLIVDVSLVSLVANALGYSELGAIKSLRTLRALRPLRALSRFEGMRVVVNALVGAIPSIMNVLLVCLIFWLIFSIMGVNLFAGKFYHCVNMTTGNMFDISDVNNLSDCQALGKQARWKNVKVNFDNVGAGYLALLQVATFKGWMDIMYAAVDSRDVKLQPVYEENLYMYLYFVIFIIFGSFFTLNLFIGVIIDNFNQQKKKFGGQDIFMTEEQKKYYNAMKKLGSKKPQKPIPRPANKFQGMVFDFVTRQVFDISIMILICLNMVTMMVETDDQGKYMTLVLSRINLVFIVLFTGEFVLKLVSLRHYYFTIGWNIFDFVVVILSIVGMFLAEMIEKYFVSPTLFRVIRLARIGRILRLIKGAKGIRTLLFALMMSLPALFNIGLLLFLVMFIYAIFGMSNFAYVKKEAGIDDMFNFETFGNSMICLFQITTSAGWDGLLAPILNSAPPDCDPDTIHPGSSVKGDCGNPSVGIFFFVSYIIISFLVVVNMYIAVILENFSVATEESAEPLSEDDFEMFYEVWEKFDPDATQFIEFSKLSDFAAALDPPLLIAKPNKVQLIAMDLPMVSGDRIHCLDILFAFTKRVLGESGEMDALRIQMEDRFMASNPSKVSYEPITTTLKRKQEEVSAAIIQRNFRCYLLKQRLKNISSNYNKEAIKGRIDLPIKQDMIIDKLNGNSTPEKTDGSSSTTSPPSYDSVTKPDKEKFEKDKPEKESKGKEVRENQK
Summary of the method: as §1

T1 sequence (Q15858 whole entry): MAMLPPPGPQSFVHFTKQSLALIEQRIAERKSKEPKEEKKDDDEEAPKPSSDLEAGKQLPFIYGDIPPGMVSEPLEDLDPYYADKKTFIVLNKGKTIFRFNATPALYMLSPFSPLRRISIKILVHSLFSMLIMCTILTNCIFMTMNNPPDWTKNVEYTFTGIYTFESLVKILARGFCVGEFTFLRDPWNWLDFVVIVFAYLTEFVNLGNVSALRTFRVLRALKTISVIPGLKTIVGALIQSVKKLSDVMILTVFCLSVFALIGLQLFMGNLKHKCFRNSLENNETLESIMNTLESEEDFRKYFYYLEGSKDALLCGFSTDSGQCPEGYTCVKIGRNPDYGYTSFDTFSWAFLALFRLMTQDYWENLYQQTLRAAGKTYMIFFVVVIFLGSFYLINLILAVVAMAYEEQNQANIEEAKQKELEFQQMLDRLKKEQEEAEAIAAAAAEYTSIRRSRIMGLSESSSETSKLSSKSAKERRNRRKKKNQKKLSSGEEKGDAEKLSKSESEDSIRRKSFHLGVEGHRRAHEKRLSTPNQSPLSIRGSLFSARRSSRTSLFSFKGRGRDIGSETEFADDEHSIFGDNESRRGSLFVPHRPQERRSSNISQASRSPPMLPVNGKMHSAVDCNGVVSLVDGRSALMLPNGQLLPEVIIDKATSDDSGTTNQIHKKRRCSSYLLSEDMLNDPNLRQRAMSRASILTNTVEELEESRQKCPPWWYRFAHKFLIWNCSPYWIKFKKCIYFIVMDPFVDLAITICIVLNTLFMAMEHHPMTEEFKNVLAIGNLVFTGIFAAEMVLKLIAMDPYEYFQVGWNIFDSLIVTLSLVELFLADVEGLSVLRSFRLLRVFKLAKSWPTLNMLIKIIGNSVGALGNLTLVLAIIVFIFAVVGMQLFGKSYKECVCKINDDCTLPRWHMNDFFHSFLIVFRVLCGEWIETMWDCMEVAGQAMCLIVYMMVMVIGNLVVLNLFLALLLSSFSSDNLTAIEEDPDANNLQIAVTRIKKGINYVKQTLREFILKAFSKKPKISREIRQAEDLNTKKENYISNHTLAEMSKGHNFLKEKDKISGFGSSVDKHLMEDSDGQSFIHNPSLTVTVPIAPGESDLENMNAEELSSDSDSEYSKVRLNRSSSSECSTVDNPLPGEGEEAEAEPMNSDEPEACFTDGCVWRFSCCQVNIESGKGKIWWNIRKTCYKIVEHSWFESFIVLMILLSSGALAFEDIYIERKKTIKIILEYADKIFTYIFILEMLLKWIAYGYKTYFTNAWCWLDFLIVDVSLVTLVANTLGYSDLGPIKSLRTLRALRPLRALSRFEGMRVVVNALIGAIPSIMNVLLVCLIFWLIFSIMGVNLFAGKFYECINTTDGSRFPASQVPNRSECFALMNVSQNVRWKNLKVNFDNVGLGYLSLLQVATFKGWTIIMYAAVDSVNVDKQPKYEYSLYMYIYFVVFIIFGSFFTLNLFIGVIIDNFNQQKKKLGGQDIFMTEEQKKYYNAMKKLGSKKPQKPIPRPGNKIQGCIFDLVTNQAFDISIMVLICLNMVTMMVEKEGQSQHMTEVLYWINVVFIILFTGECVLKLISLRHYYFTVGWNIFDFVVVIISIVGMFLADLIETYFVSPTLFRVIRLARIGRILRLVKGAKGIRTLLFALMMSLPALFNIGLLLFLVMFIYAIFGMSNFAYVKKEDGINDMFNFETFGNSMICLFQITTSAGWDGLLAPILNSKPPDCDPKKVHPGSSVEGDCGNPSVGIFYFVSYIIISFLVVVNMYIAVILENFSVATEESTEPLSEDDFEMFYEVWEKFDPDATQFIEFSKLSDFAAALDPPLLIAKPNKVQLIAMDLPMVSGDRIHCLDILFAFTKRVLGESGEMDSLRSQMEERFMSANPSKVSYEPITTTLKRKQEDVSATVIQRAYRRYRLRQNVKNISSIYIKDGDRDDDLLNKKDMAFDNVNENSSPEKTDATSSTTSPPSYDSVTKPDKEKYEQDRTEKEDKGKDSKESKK

Row | IC50 [1] [nM] | IC50 [2] [nM] | Structure (SMILES)
1 | < 2000 | < 2000 | O=S(=O)(Nc1nccs1)c1ccc(Nc2nc(CNCCC(c3ccccc3)c3ccccc3)cs2)cc1 [Compound 61, 4-(4-((3,3-diphenylpropylamino)methyl)thiazol-2-ylamino)-N-(thiazol-2-yl)benzenesulfonamide]
2 | 2000 to 10000 | < 2000 | CC(C)(C)c1ccc(OCc2csc(Nc3ccc(S(=O)(=O)Nc4nccs4)cc3)n2)cc1 [Compound 62, 4-(4-((4-tert-butylphenoxy)methyl)thiazol-2-ylamino)-N-(thiazol-2-yl)benzenesulfonamide]
3 | 2000 to 10000 | < 2000 | CC(Oc1ccccc1)c1csc(Nc2ccc(S(=O)(=O)Nc3nccs3)cc2)n1 (stereo not shown) [Compound 63, 4-(4-(1-phenoxyethyl)thiazol-2-ylamino)-N-(thiazol-2-yl)benzenesulfonamide]
4 | > 1000 | < 2000 | O=S(=O)(Nc1nccs1)c1ccc(Nc2nc(C3(c4ccc(Cl)cc4)CCCC3)cs2)cc1 [Compound 64, 4-(4-(1-(4-chlorophenyl)cyclopentyl)thiazol-2-ylamino)-N-(thiazol-2-yl)benzenesulfonamide]
5 | < 2000 | < 2000 | O=S(=O)(Nc1nccs1)c1ccc(Nc2nc(CNCc3ccc(Cl)cc3)cs2)cc1 [Compound 65, 4-(4-((4-chlorobenzylamino)methyl)thiazol-2-ylamino)-N-(thiazol-2-yl)benzenesulfonamide]
6 | > 3000 | > 1000 | COc1ccc(CCNCc2csc(Nc3ccc(S(=O)(=O)Nc4nccs4)cc3)n2)cc1OC [Compound 66, 4-(4-((3,4-dimethoxyphenethylamino)methyl)thiazol-2-ylamino)-N-(thiazol-2-yl)benzenesulfonamide]
7 | 2000 to 10000 | < 2000 | CN(CCc1ccccc1)Cc1csc(Nc2ccc(S(=O)(=O)Nc3nccs3)cc2)n1 [Compound 67, 4-(4-((methyl(phenethyl)amino)methyl)thiazol-2-ylamino)-N-(thiazol-2-yl)benzenesulfonamide]
8 | 2000 to 10000 | > 1000 | CCN(CC)Cc1csc(Nc2ccc(S(=O)(=O)Nc3nccs3)cc2)n1 [Compound 68, 4-(4-((diethylamino)methyl)thiazol-2-ylamino)-N-(thiazol-2-yl)benzenesulfonamide]
9 | < 2000 | < 2000 | O=S(=O)(Nc1nccs1)c1ccc(Nc2nc(CNCCCCc3ccccc3)cs2)cc1 [Compound 69, 4-(4-((4-phenylbutylamino)methyl)thiazol-2-ylamino)-N-(thiazol-2-yl)benzenesulfonamide]
10 | > 1000 | < 2000 | CN(Cc1csc(Nc2ccc(S(=O)(=O)Nc3nccs3)cc2)n1)C(c1ccccc1)c1ccccc1 [Compound 70, 4-(4-((benzhydryl(methyl)amino)methyl)thiazol-2-ylamino)-N-(thiazol-2-yl)benzenesulfonamide]
11 | 2000 to 10000 | < 2000 | O=S(=O)(Nc1nccs1)c1ccc(Nc2nc(CNCc3ccc(C(F)(F)F)cc3)cs2)cc1 [Compound 71, N-(thiazol-2-yl)-4-(4-((4-(trifluoromethyl)benzylamino)methyl)thiazol-2-ylamino)benzenesulfonamide]
12 | 2000 to 10000 | < 2000 | O=[N+]([O-])c1ccc(CNCc2csc(Nc3ccc(S(=O)(=O)Nc4nccs4)cc3)n2)cc1 [Compound 72, 4-(4-((4-nitrobenzylamino)methyl)thiazol-2-ylamino)-N-(thiazol-2-yl)benzenesulfonamide]
13 | 2000 to 10000 | < 2000 | CN(C)c1ccc(CNCc2csc(Nc3ccc(S(=O)(=O)Nc4nccs4)cc3)n2)cc1 [Compound 73, 4-(4-((4-(dimethylamino)benzylamino)methyl)thiazol-2-ylamino)-N-(thiazol-2-yl)benzenesulfonamide]
14 | 2000 to 10000 | 2000 to 10000 | O=S(=O)(Nc1nccs1)c1ccc(Nc2nc(CNC3CCCCCC3)cs2)cc1 [Compound 74, 4-(4-((cycloheptylamino)methyl)thiazol-2-ylamino)-N-(thiazol-2-yl)benzenesulfonamide]
15 | > 1000 | < 2000 | CN(CCc1ccncc1)Cc1csc(Nc2ccc(S(=O)(=O)Nc3nccs3)cc2)n1 [Compound 75, 4-(4-((methyl(2-(pyridin-4-yl)ethyl)amino)methyl)thiazol-2-ylamino)-N-(thiazol-2-yl)benzenesulfonamide]
16 | 2000 to 10000 | 2000 to 10000 | COc1ccc(CNCc2csc(Nc3ccc(S(=O)(=O)Nc4nccs4)cc3)n2)c(OC)c1 [Compound 76, 4-(4-((2,4-dimethoxybenzylamino)methyl)thiazol-2-ylamino)-N-(thiazol-2-yl)benzenesulfonamide]
17 | > 3000 | < 2000 | COC(=O)c1sc(Nc2ccc(S(=O)(=O)Nc3nccs3)cc2)nc1C [Compound 77, methyl 4-methyl-2-(4-(N-thiazol-2-ylsulfamoyl)phenylamino)thiazole-5-carboxylate]
18 | > 1000 | 2000 to 10000 | Cc1csc(Nc2ccc(S(=O)(=O)Nc3nccs3)cc2)n1 [Compound 78, 4-(4-methylthiazol-2-ylamino)-N-(thiazol-2-yl)benzenesulfonamide]
19 | < 2000 | < 2000 | O=S(=O)(Nc1nccs1)c1ccc(Nc2nc(Cc3ccc(F)cc3F)cs2)cc1 [Compound 79, 4-(4-(2,4-difluorobenzyl)thiazol-2-ylamino)-N-(thiazol-2-yl)benzenesulfonamide]
20 | > 1000 | 2000 to 10000 | Cc1nc(Nc2ccc(S(=O)(=O)Nc3nccs3)cc2)sc1C [Compound 80, 4-(4,5-dimethylthiazol-2-ylamino)-N-(thiazol-2-yl)benzenesulfonamide]
21 | > 10000 | < 2000 | O=S(=O)(Nc1nccs1)c1ccc(Nc2nccc(OCC3CCCCC3)n2)cc1 [Compound 81, 4-(4-(cyclohexylmethoxy)pyrimidin-2-ylamino)-N-(thiazol-2-yl)benzenesulfonamide]
22 | < 2000 | < 2000 | O=S(=O)(Nc1nccs1)c1ccc(Nc2nc(CSc3ccc(F)cc3)cs2)cc1 [Compound 82, 4-(4-((4-fluorophenylthio)methyl)thiazol-2-ylamino)-N-(thiazol-2-yl)benzenesulfonamide]
23 | 2000 to 10000 | < 2000 | O=S(=O)(Nc1nccs1)c1ccc(Nc2nc(C(F)(F)F)cs2)cc1 [Compound 83, N-(thiazol-2-yl)-4-(4-(trifluoromethyl)thiazol-2-ylamino)benzenesulfonamide]
24 | < 2000 | < 2000 | O=S(=O)(Nc1nccs1)c1ccc(Nc2nc(-c3ccc(C(F)(F)F)cc3)cs2)cc1 [Compound 84, N-(thiazol-2-yl)-4-(4-(4-(trifluoromethyl)phenyl)thiazol-2-ylamino)benzenesulfonamide]
25 | > 3000 | > 1000 | COc1ccnc(Nc2ccc(S(=O)(=O)Nc3nccs3)cc2)n1 [Compound 85, 4-(4-methoxypyrimidin-2-ylamino)-N-(thiazol-2-yl)benzenesulfonamide]
26 | > 1000 | 2000 to 10000 | O=S(=O)(Nc1nccs1)c1ccc(Nc2nc(C[S+]([O-])c3ccc(F)cc3)cs2)cc1 (stereo not shown) [Compound 89, 4-(4-((4-fluorophenylsulfinyl)methyl)thiazol-2-ylamino)-N-(thiazol-2-yl)benzenesulfonamide]
